Here are results for one compound from patent US7939320B2, “Astaxanthine biosynthesis in eukaryotes” (Peter und Traudl Engelhorn-Stiftung zur Forderung der …, priority 2005, dated 2011).

Assay [1] relates to H. pluvialis phytoene desaturase Leu504Arg mutants. Kind of assay: Resistance to norflurazon of Leu504Arg phytoene desaturase mutants compared with wild type. It is filed as cell-based, Haematococcus pluvialis. The conditions noted are these: mutants with leucine to arginine substitution at position 504 of PDS. The text has this: The amino acid substitution according to the invention from leucine to arginine at position 504 of the H. pluvialis PDS protein corresponds to the Leu437Arg substitution in Synechococcus PCC7942 (FIG. 2). For this purpose, the Leu codon “CTG” is replaced by the Arg codon “CGC” by directed mutagenesis. This mutation imparts, to the mutants, the highest known resistance factor to norflurazon. The resistance which has been conferred imparts, to the mutants according to the invention, a resistance to norflurazon which is up to 70-fold higher in comparison with the wild type. In accordance with the invention, norflurazon concentrations of […] are used as selection substance.
A portion of the phytoene desaturase 6.1 kilobases in size was isolated from a genomic DNA library of H. pluvialis and subcloned into the multiple cloning site (MCS) of the pBluescriptSK vector (stratagene) via the restriction cleavage sites XbaI and XhoI. A nucleotide substitution from CTG to CGC was carried out via directed mutagenesis with the primers PDS-Qmut-plu2 CCAAGCAGAAGTACCGCGCCTCCATGGAGGG (SEQ ID NO: 8)and PDS-Qmut-min2 CCCTCCATGGAGGCGCGGTACTTCTGCTTGG (SEQ ID NO: 9); the plasmid was named pPDS-Q2. This nucleotide substitution led to an amino acid substitution from leucine to arginine in codon 504 (FIG. 2), and confers to mutants a resistance to norflurazon.

Another assay deals with H. pluvialis WT cells. Kind of assay: Growth of H. pluvialis WT cells on OHA plates containing norflurazon. In kind it is cell-based, Haematococcus pluvialis. The conditions noted are these: norflurazon 0.7 μM.

For the compound `CNc1cnn(-c2cccc(C(F)(F)F)c2)c(=O)c1Cl` [norflurazon], the “resistance to norflurazon, fold higher in comparison with the wild type” value in assay [1] was “up to 70 fold”. The “growth of the WT cells” value in the assay with H. pluvialis WT cells is listed as “greatly inhibited”.
